Measurements published in patent US20250144187A1, “COMBINATION OF HYDROLASES AND ANTI-MICROORGANISM DRUGS AND USES THEREOF” (CENTRE FOR EYE AND VISION RESEARCH LIMITED, priority 2023, published 2025).

How the values were obtained:
MRSA [1] = test: Mutation frequency and prevention concentration analysis, tedizolid phosphate/lysozyme
MRSA [2] = test: ATP, NAD+/NADH and pyruvate levels, tedizolid phosphate/lysozyme; type: cell-based, Staphylococcus aureus; conditions: combination therapy for 1 hour
Protocol: 13) ATP, NAD^+/NADH and pyruvate levels. According to the described method [Liu. Y et al., Adv. Sci. 7, 1902227(2020)], mid-log-phase MRSA with the OD600 of 0.4 to 0.6 was treated with lysozyme, tedizolid phosphate or their combination at different concentrations. Those without any treatment served as control group. After 1 hour incubation at 37° C. all bacteria we collected and then washed by cold PBS for 3 times. […] Then, 75 μl of each supernatant was incubated 25 μl of reaction I, followed by continuous incubation with 125 μl of reaction II. By recording the absorbance at 520 mu, the pyruvate level in each sample was figured out according to the standard formula. The intensity in control group was defined as 100% and others were normalized.
Then, 20 si of each supernatant was added white 96-well plate pre-reactivated by 100 μl of ATP test solution (Beyotime Biotechnology, China), followed by luminometer measurement [Liu, Y et al., Adv. Sci 7, 1902227 (2020)]. To analyze the intracellular NAD^+ and NADH levels [Xue, C et al., Front. Pharmacol. 12, 600296 (2021)], each lysis supernatant was divided into two tubes. One tube was heated at 60° C. for 30 minutes in PCR machine to decompose NAD^+ if had. Then, this tube was further centrifuged at 18,000 g at 4° C. for 20 minutes to collect the supernatant. After that, 20 μl of supernatant from heated or unheated group was added white 96-well plate pre-reactivated by 90 μl/well of alcohol dehydrogenase solution (Beyotime Biotechnology, China) for 10 minutes incubation at 37° C. in the prevention of light, Next, 10 μl of staining solution (Beyotime Biotechnology, China) was added to react with product in previous reaction. After 30 minutes at 37° C. in the prevention of light, orange formazan was observed and then the absorbance at 450 nm was recorded. Intensities of those […] heat treatment indicated the levels of NADH+NAD^+ and NADH itself, respectively. Finally, according to the standard formula, the intracellular levels of NAD^+, NADH and their ratio were figured out. All results were expressed as average±SD. […]

MRSA and MRSE = test: Resistance development studies (serial passages), tedizolid phosphate/lysozyme; type: cell-based; conditions: after 12-day serial passages
Protocol: 5) Resistance development studies. […] H et al., Nat Commun. 11, 5263 (2020)], MRSA at exponential phase was diluted (1:1000) into fresh LB medium containing different concentrations of tedizolid phosphate, lysozyme alone or their combination. After cultured at 37° C. for 24 hours, the MIC of culture was determined by standard two-fold serial dilutions in 96-well microtiter plates. […] . All assays were performed in triplicate.

MRSA [3] = test: Time-killing curves, tedizolid phosphate/lysozyme; type: cell-based, Staphylococcus aureus; conditions: tedizolid phosphate + 0.5 mg/ml lysozyme, after 22 hours; dropping from the level of 10^12
Protocol: 3) Time-killing curves. According to standard method [Sun. H et al., Nat. Commun. 11, 5263 (2020); Thappeta, K. R. V., Vikke. Y. S., Yong. A. M. H., Chan-Park. M. B. Kline, K. A. Combined efficacy of an antimicrobial cationic peptide polymer with conventional antibiotics to combat multidrug-resistant pathogens. ACS Infect. Dis. 6, 1229-1237 (2020)], over-night cultured MRSA was diluted and aliquoted into new sterile 50 ml tubes at 1:1000 ratio. Then, the bacterial suspension was co-cultured with 0.25 or 0.5 μg/ml tedizolid phosphate, 0.5 mg/ml lysozyme or their combination at 37° C. with shaking at 50 rpm. Similar bacterial suspension without any additions served as control group. To measure their real bacterial loads to draw their kinetic time-killing curves, 20 μl of each culture was extracted at time intervals of 0, 1, 3, 6, 9, 12 and 22 hours, and then 10 μl of each sample (10-fold serial dilution) was applied onto LB-agar plate and incubated at 37° C. for 24 hours. All assays were performed in triplicate.

Compound: Cn1nnc(-c2ccc(-c3ccc(N4C[C@H](COP(=O)(O)O)OC4=O)cc3F)cn2)n1 [tedizolid phosphate, Tedizolid Phosphate]
- mutation frequencies (MRSA [1]; combination with lysozyme): 2×10^−9
- prevention concentrations of tedizolid phosphate (MRSA [1]; combination with lysozyme): ≤ 1 µg/mL
- mutation frequencies (MRSA [1]; without combination therapy): ≥ 5×10^−7
- prevention concentrations of tedizolid phosphate (MRSA [1]; without lysozyme): > 50 µg/mL
- decrease in the level of pyruvate (MRSA [2]): > 40%
- level of ATP (MRSA [2]): higher levels of ATP
- ratio of NAD+/NADH (MRSA [2]; increased from 8.84±1.89): 18.43±4.42
- changes in the MIC level of tedizolid phosphate (MRSA and MRSE; combination therapy with lysozyme): remained unchanged
- changes in the MIC level of tedizolid phosphate (MRSA and MRSE; tedizolid phosphate alone): 30 fold
- bacterial load per ml culture (MRSA [3]): 10^6 colony forming units (CFUs)
